Laboratory results from the kinase profiling compilation of Christmann-Franck et al. (2016).

Key:
Assay in all cases: radiometric filter-binding kinase assay, Kinase HotSpot
Conditions in all cases: compound 0.5 µM; ATP 10 µM
[1] = biological target: ADRBK1 (human) (UniProt P25098)
[2] = biological target: CSNK1G2 (human) (UniProt P78368)
[3] = biological target: RPS6KA5 KD2 (human) (UniProt O75582)
[4] = biological target: EPHA5 (human) (UniProt P54756)
[5] = biological target: CDK6 CCND3 (human) (UniProt P30281+Q00534)
[6] = biological target: PKN1 (human) (UniProt Q16512)
[7] = biological target: CSNK1G3 (human) (UniProt Q9Y6M4)
[8] = biological target: FGFR2 (human) (UniProt P21802)
[9] = biological target: TAOK1 (human) (UniProt Q7L7X3)
[10] = biological target: BTK (human) (UniProt Q06187)
[11] = biological target: CDK9 CCNT1 (human) (UniProt P50750+O60563)
[12] = biological target: PRKX (human) (UniProt P51817)
[13] = biological target: HIPK3 (human) (UniProt Q9H422)
[14] = biological target: HCK (human) (UniProt P08631)
[15] = biological target: SLK (human) (UniProt Q9H2G2)
[16] = biological target: STK33 (human) (UniProt Q9BYT3)
[17] = biological target: INSR (human) (UniProt P06213)
[18] = biological target: MAP3K14 (human) (UniProt Q99558)
[19] = biological target: TBK1 (human) (UniProt Q9UHD2)
[20] = biological target: PLK3 (human) (UniProt Q9H4B4)
[21] = biological target: PLK1 (human) (UniProt P53350)
[22] = biological target: CDK1 CCNB1 (human) (UniProt P06493+P14635)
[23] = biological target: BRSK2 (human) (UniProt Q8IWQ3)
[24] = biological target: SIK2 (human) (UniProt Q9H0K1)
[25] = biological target: STK17A (human) (UniProt Q9UEE5)
[26] = biological target: IGF1R (human) (UniProt P08069)
[27] = biological target: TGFBR2 (human) (UniProt P37173)
[28] = test system: PRKCQ (human), Q04759 [P330L]
[29] = biological target: MATK (human) (UniProt P42679)
[30] = biological target: NTRK2 (human) (UniProt Q16620)
[31] = biological target: CAMK1 (human) (UniProt Q14012)
[32] = biological target: CDC42BPA (human) (UniProt Q5VT25)
[33] = biological target: SRPK3 (human) (UniProt Q9UPE1)
[34] = biological target: GRK5 (human) (UniProt P34947)
[35] = biological target: CDK1 CCNA2 (human) (UniProt P06493+P20248)
[36] = biological target: PRKCI (human) (UniProt P41743)
[37] = biological target: CDK4 CCND3 (human) (UniProt P30281+P11802)
[38] = biological target: SYK (human) (UniProt P43405)
[39] = biological target: PAK3 (human) (UniProt O75914)
[40] = biological target: TYRO3 (human) (UniProt Q06418)

CDC42BPA (human), sequence (Q5VT25 whole entry, looked up): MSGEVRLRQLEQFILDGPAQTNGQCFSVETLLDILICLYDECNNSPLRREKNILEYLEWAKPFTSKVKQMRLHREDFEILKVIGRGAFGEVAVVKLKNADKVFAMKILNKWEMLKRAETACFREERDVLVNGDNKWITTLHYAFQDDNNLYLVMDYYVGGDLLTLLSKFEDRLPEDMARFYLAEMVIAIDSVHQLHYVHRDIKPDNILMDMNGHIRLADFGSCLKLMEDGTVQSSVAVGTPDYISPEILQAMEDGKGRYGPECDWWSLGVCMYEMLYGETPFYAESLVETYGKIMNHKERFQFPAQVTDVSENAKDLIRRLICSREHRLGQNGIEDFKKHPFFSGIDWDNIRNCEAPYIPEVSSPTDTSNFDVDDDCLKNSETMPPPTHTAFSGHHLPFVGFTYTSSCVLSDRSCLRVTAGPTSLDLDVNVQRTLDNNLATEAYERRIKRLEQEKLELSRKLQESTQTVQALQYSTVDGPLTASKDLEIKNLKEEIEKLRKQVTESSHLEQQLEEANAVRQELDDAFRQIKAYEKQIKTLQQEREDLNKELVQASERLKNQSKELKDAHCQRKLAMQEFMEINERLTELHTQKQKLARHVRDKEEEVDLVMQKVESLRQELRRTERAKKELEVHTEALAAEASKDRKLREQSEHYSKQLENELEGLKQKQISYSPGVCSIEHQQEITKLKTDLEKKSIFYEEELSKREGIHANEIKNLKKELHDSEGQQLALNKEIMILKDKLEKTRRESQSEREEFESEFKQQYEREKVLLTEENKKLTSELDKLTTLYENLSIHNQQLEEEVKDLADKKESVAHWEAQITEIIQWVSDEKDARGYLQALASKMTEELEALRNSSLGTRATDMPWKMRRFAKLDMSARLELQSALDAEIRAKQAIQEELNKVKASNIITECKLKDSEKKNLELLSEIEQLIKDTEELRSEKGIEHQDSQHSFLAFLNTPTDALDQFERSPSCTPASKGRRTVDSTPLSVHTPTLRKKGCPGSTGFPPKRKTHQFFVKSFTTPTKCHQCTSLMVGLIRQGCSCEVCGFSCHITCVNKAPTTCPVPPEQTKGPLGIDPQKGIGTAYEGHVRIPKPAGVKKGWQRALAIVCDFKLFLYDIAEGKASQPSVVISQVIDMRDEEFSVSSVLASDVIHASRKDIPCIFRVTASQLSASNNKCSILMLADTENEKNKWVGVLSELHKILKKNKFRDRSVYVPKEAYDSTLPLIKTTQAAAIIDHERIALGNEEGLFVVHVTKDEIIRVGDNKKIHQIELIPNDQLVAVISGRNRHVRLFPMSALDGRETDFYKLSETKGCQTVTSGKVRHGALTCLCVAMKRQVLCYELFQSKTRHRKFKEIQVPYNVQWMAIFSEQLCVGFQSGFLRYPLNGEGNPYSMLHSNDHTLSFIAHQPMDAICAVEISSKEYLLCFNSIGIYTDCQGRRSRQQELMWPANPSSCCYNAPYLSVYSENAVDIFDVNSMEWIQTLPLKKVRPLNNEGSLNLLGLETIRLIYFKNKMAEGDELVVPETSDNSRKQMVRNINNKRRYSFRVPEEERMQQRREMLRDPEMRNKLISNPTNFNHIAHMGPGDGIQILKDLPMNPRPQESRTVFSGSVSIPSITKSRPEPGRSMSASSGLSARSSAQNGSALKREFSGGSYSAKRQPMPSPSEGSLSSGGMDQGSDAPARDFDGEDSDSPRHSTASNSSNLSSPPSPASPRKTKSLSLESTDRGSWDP
CDK9 CCNT1 (human), sequence (O60563 whole entry, looked up): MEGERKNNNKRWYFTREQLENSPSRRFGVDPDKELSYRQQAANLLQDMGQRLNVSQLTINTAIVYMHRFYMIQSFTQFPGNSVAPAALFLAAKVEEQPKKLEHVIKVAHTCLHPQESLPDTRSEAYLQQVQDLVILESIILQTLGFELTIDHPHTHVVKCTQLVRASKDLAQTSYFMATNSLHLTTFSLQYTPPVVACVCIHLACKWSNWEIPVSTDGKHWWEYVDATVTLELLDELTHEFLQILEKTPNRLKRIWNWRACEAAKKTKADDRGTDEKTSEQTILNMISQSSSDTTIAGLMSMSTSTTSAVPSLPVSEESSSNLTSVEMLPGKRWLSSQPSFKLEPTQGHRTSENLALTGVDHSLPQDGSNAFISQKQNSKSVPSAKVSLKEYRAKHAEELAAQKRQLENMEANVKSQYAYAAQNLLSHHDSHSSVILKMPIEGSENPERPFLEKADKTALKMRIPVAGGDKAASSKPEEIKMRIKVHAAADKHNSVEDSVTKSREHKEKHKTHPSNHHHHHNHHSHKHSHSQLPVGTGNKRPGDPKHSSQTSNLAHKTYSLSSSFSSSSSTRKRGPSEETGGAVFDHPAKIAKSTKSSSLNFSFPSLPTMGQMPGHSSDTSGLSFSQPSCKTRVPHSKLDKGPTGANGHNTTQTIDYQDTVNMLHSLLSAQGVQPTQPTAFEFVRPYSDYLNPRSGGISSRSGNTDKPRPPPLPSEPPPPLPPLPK
CDK9 CCNT1 (human), sequence (P50750 whole entry, looked up): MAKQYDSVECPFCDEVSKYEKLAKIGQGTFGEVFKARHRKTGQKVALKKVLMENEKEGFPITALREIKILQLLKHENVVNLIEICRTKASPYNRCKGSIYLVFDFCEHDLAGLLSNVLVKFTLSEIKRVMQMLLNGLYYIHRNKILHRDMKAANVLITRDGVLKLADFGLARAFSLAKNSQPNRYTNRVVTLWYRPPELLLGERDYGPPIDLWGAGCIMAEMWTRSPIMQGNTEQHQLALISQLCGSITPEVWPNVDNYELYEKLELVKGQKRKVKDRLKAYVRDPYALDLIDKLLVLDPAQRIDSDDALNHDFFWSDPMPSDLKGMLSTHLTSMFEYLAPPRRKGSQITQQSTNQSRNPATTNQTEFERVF
SLK (human), sequence (Q9H2G2 whole entry, looked up): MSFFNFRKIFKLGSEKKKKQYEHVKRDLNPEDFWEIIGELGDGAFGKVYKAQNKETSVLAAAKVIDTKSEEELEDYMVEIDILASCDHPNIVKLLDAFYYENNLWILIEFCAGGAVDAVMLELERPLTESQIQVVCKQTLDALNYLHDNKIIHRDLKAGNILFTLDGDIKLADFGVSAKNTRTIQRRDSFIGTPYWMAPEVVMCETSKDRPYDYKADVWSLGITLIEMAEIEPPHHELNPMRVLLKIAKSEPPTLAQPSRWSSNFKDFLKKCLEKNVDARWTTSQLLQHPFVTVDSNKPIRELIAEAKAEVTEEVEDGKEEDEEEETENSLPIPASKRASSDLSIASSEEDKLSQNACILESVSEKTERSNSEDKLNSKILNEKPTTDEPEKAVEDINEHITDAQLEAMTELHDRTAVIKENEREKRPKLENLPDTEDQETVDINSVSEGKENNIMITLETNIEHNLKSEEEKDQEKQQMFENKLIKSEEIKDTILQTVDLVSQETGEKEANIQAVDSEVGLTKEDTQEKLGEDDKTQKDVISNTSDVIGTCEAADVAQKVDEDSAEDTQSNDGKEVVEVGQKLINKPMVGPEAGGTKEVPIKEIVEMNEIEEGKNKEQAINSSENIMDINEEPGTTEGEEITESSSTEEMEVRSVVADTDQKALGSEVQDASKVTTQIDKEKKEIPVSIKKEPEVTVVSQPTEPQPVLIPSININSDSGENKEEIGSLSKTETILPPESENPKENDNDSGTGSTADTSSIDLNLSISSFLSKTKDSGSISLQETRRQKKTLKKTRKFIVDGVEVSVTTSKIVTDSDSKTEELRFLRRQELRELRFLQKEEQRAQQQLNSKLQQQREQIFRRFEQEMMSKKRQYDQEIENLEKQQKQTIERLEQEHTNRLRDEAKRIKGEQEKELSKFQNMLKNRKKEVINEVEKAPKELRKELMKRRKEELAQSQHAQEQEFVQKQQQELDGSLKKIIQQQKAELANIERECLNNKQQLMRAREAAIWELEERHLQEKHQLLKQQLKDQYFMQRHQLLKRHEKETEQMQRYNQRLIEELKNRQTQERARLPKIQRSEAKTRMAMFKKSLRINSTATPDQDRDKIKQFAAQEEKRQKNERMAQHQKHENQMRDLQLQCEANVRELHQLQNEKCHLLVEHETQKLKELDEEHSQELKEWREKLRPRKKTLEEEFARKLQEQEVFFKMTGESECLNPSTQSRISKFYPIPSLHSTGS
TGFBR2 (human), sequence (P37173 whole entry, looked up): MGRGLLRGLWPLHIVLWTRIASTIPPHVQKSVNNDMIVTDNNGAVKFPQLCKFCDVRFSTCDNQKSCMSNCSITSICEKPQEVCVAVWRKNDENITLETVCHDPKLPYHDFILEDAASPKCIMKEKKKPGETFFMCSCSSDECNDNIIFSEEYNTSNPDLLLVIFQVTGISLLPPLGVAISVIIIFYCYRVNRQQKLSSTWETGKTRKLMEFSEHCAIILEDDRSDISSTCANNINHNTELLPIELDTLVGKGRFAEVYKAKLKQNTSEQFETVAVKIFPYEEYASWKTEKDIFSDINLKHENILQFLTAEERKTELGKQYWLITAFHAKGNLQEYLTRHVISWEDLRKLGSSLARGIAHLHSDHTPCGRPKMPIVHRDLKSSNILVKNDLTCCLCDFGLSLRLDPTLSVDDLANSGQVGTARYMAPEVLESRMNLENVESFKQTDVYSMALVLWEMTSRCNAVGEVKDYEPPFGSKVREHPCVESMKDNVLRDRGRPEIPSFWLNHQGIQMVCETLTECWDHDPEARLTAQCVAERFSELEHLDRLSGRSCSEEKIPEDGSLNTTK
STK17A (human), sequence (Q9UEE5 whole entry, looked up): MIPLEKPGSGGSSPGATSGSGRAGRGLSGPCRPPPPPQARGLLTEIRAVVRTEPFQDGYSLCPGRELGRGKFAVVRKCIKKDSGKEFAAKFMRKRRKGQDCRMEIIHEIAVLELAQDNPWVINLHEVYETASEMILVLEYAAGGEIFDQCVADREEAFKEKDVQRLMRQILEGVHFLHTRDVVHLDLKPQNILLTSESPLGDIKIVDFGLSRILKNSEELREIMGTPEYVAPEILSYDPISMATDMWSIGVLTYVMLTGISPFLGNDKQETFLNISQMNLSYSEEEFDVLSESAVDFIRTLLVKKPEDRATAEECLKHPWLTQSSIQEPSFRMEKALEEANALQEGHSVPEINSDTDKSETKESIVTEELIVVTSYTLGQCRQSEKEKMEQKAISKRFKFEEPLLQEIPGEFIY

SMILES	residual activity [1]	residual activity [2]	residual activity [3]	residual activity [6]	residual activity [7]	residual activity [9]	residual activity [11]	residual activity [12]	residual activity [13]	residual activity [14]	residual activity [15]	residual activity [16]	residual activity [17]	residual activity [18]	residual activity [19]	residual activity [20]	residual activity [21]	residual activity [23]	residual activity [25]	residual activity [27]	other results
COc1cc(Nc2c(C#N)cnc3cc(OCCCN4CCN(C)CC4)c(OC)cc23)c(Cl)cc1Cl	97.3%	98.3%	90.8%	74.2%	98.3%	52.8%	87%	110%	93.5%	11.9%	21.6%	63.5%	69.8%	129%	65.7%	98.5%	93.8%	94.2%	107%	95.7%	residual activity [4]: 37.1%; residual activity [5]: 122%; residual activity [8]: 58.1%; residual activity [10]: 5.69%; residual activity [22]: 95.9%; residual activity [24]: 1.93%; residual activity [26]: 91.5%; residual activity [28]: 71.5%; residual activity [29]: 140%; residual activity [30]: 69.2%; residual activity [31]: 68.9%; residual activity [32]: 112%; residual activity [33]: 106%; residual activity [34]: 109%; residual activity [35]: 96.9%; residual activity [36]: 99.4%; residual activity [37]: 103%; residual activity [38]: 21.1%
C[C@@H]1CCN(C(=O)CC#N)C[C@@H]1N(C)c1ncnc2[nH]ccc12	95.3%	95.4%	94.8%	16.5%	101%	99.9%	100%	110%	100%	88.3%	89.2%	97.8%	101%	107%	92.5%	99.1%	101%	86.9%	106%	98.8%	residual activity [4]: 99.9%; residual activity [5]: 110%; residual activity [8]: 91.7%; residual activity [39]: 105%; residual activity [22]: 90.8%; residual activity [24]: 89.2%; residual activity [40]: 103%; residual activity [26]: 93.1%; residual activity [28]: 89%; residual activity [29]: 66.9%; residual activity [30]: 97.1%; residual activity [31]: 99.3%; residual activity [32]: 110%; residual activity [33]: 103%; residual activity [34]: 107%; residual activity [35]: 95.9%; residual activity [36]: 103%; residual activity [37]: 99.9%
CO[C@@H]1[C@H](N(C)C(=O)c2ccccc2)C[C@H]2O[C@]1(C)n1c3ccccc3c3c4c(c5c6ccccc6n2c5c31)C(=O)NC4	102%	98.3%	13.2%	1.37%	95.3%	60.8%	64.2%	55.4%	93.3%	14.9%	30.5%	46.4%	106%	113%	3.22%	95.3%	95.4%	16.4%	62.9%	99.1%	residual activity [40]: 98.8%; residual activity [29]: 113%; residual activity [30]: 12.8%; residual activity [32]: 96%; residual activity [33]: 93.3%; residual activity [34]: 93.3%; residual activity [36]: 96.4%; residual activity [38]: 16.8%
